How the values were obtained:
rice = assay: Rice leaf bending assay (leaf inclination angle); assay type: in vivo; details: for Average angle / Total angle: 48 hr; for Total angle: sum of 20 rice
Text: According to a rice leaf bending assay, we measured leaf inclination angle of rice to determine effects of the natural brassinolide analogues on the enhancement of plant development. The larger the leaf inclination angle of rice, the more effects on plant development. The detailed assay procedure is as follows:
The natural brassinolide analogues, BR1, BR2, BR3, BR4, BR5 and BR6, used herein, were those prepared by the method of Example 1. And BR1, BR2, BR3, BR4, BR5 and BR6 were mixed into a mixture of brassinolide analogues (referred to as “BRs”, in which the weight ratio of BR1:BR2:BR3:BR4:BR5:BR6 is 0.4:0.4:0.4:0.4:0.4:98). Respectively the analogues and the mixture were dissolved into 95% (V/V) ethanol solution, and then diluted with pure water to 1 mg/L, 0.1 mg/L, 0.01 mg/L, 0.001 mg/L and 0.0001 mg/L. In addition, pure water was used as a control.
After rice seeds were disinfected by using 5% sodium hypochlorite solution treatment, they were rinsed with distilled water until their pH>7, placed into a petri dish in a dark incubator, and cultured by using water at 30° C.±2° C. for 9 days. Then the nine-day-old etiolated seedlings of rice were cut around the center of the base of second leaf to segments with 1 cm leaf and 1 cm leaf sheath. The leaf segments were floated in distilled water, placed in a dark incubator, cultured at 30° C.±2° C. for 24 hr, and then dried by a filter paper. The dried leaf segments were respectively immersed in the above solutions containing different concentrations of the natural brassinolide analogues or pure water, and cultured in a dark incubator at 30° C.±2° C. for 48 hr. Every solution or pure water contained the leaf segments from 20 rice. Then the inclination angle between the second leaf and the leaf sheath of the leaf segments was measured by a protractor.

rice seed = assay: Salt tolerance assay: germination of rice seed under high salt environment; assay type: in vivo
Text: According to a salt tolerance assay, we measured germination of rice seed under high salt environment to determine effects of the natural brassinolide analogues on the salt tolerance of a plant.
The natural brassinolide analogues, BR1, BR2, BR3, BR4, BR5 and BR6, used herein, were those prepared by the method of Example 1. And BR1, BR2, BR3, BR4, BR5 and BR6 were mixed into a mixture of brassinolide analogues (referred to as “BRs”, in which the weight ratio of BR1:BR2:BR3:BR4:BR5:BR6 is 0.4:0.4:0.4:0.4:0.4:98). Respectively the analogues and the mixture were dissolved into 95% (V/V) ethanol solution, and then diluted with pure water to 1 mg/L, 0.1 mg/L, 0.01 mg/L, 0.001 mg/L and 0.0001 mg/L. In addition, pure water was used as a control. Furthermore, NaCl was added to the above solutions containing different concentrations of the natural brassinolide analogues or pure water respectively, and the concentrations of the salt are 300, 400, 500 and 600 mg/L respectively.
After rice seeds were disinfected by using 5% sodium hypochlorite solution treatment, they were rinsed with distilled water until their pH>7, placed into a petri dish in a dark incubator, and cultured at 30° C.±2° C. by using the above solutions containing different concentrations of the natural brassinolide analogues or pure water for observing the germination and calculating germination rates. The results are shown in tables 4-0˜4-4, which indicate that relative to the control, each of the natural brassinolide analogues and the mixture were capable of increasing germination rates of rice under high salt environment so as to enhance the salt tolerance of a plant; and substantially the enhancement of the germination rates was positively correlated to the concentrations of the natural brassinolide analogues and the mixture.

[1] = sample 0.0001 mg/l, salt 300 mg/l
[2] = sample 0.0001 mg/l, salt 400 mg/l
[3] = sample 0.0001 mg/l, salt 500 mg/l
[4] = sample 0.0001 mg/l, salt 600 mg/l
[5] = sample 0.001 mg/l, salt 300 mg/l
[6] = sample 0.001 mg/l, salt 400 mg/l
[7] = sample 0.001 mg/l, salt 500 mg/l
[8] = sample 0.001 mg/l, salt 600 mg/l
[9] = sample 0.01 mg/l, salt 300 mg/l
[10] = sample 0.01 mg/l, salt 400 mg/l
[11] = sample 0.01 mg/l, salt 500 mg/l
[12] = sample 0.01 mg/l, salt 600 mg/l

Structure (SMILES)	Average angle (rice; 0.0001 mg/l) [degree]	Total angle (rice; 0.0001 mg/l) [degree]	Average angle (rice; 0.001 mg/l) [degree]	Total angle (rice; 0.001 mg/l) [degree]	Average angle (rice; 0.01 mg/l) [degree]	Total angle (rice; 0.01 mg/l) [degree]	Average angle (rice; 0.1 mg/l) [degree]	Total angle (rice; 0.1 mg/l) [degree]	Average angle (rice; 1 mg/l) [degree]	Total angle (rice; 1 mg/l) [degree]	Germination rate (rice seed; [1]) [%]	Germination rate (rice seed; [2]) [%]	Germination rate (rice seed; [3]) [%]	Germination rate (rice seed; [4]) [%]	Germination rate (rice seed; [5]) [%]	Germination rate (rice seed; [6]) [%]	Germination rate (rice seed; [7]) [%]	Germination rate (rice seed; [8]) [%]	Germination rate (rice seed; [9]) [%]	Germination rate (rice seed; [10]) [%]	also measured
CC(C)[C@H](C)[C@@H](O)[C@H](O)[C@@H](C)[C@H]1CCC2C3COC(=O)C4C[C@H](O)[C@H](O)C[C@]4(C)C3CC[C@@]21C (stereo partly shown) [BR1]	5.34	106.8	11.27	225.4	21.05	421	36.25	725	110.75	2215	51	48	42	36	53	49	45	37	55	52	Effects on leaf inclination compared among analogues (rice; in the case of high concentrations): more than those of BR2, BR3 and BR4; Germination rate (rice seed; [11]): 47%; Germination rate (rice seed; [12]): 39%; Germination rate (rice seed; sample 0.1 mg/l, salt 300 mg/l): 58%; Germination rate (rice seed; sample 0.1 mg/l, salt 400 mg/l): 52%; Germination rate (rice seed; sample 0.1 mg/l, salt 500 mg/l): 49%; Germination rate (rice seed; sample 0.1 mg/l, salt 600 mg/l): 40%; Germination rate (rice seed; sample 1 mg/l, salt 300 mg/l): 62%; Germination rate (rice seed; sample 1 mg/l, salt 400 mg/l): 55%; Germination rate (rice seed; sample 1 mg/l, salt 500 mg/l): 50%; Germination rate (rice seed; sample 1 mg/l, salt 600 mg/l): 42%
CC(C)[C@H](C)[C@@H](O)[C@H](O)[C@@H](C)[C@H]1CCC2C3CC(=O)C4C[C@H](O)CC[C@]4(C)C3CC[C@@]21C (stereo partly shown) [BR4]	3.8	76	6.5	130	12.25	245	21.4	428	64	1280	50	47	42	36	51	49	43	37	55	52	Germination rate (rice seed; [11]): 47%; Germination rate (rice seed; [12]): 39%; Germination rate (rice seed; sample 0.1 mg/l, salt 300 mg/l): 58%; Germination rate (rice seed; sample 0.1 mg/l, salt 400 mg/l): 50%; Germination rate (rice seed; sample 0.1 mg/l, salt 500 mg/l): 49%; Germination rate (rice seed; sample 0.1 mg/l, salt 600 mg/l): 40%; Germination rate (rice seed; sample 1 mg/l, salt 300 mg/l): 60%; Germination rate (rice seed; sample 1 mg/l, salt 400 mg/l): 55%; Germination rate (rice seed; sample 1 mg/l, salt 500 mg/l): 50%; Germination rate (rice seed; sample 1 mg/l, salt 600 mg/l): 41%
